Assay [1] addresses T1, human capsaicin receptor (Homo sapiens, UniProt Q8NER1).
T1 construct: expressed in transfected cells; host or cells: HEK293 cells stably transfected with pBK-CMV construct
Put plainly: Calcium mobilization assay, determination of antagonist activity (Example 6). The assay is classed as cell-based. The following applies: cells expressing human capsaicin receptor; capsaicin at its EC50; read-out: IC50 determined as described in Example 6. The source says:
A cDNA encoding full length human capsaicin receptor (SEQ ID NO:1, 2 or 3 of U.S. Pat. No. 6,482,611) is subcloned in the plasmid pBK-CMV (Stratagene, La Jolla, Calif.) for recombinant expression in mammalian cells.
Human embryonic kidney (HEK293) cells are transfected with the pBK-CMV expression construct encoding the full length human capsaicin receptor using standard methods. […] Independent clones are isolated from this pool by limiting dilution to obtain clonal stable cell lines for use in subsequent experiments.
This Example illustrates representative calcium mobilization assays for use in evaluating test compounds for agonist and antagonist activity.
(§1) Cells transfected with expression plasmids (as described in Example 4) and thereby expressing human capsaicin receptor are seeded and grown to 70-90% confluency in FALCON black-walled, clear-bottomed 96-well plates (#3904, BECTON-DICKINSON, Franklin Lakes, N.J.). The culture medium is emptied from the 96 well plates and FLUO-3 AM calcium sensitive dye (Molecular Probes, Eugene, Oreg.) is added to each well (dye solution: 1 mg FLUO-3 AM, 440 μL DMSO and 440 μl 20% pluronic acid in DMSO, diluted 1:250 in Krebs-Ringer HEPES (KRH) buffer (25 mM HEPES, 5 mM KCl, 0.96 mM NaH2PO4, 1 mM MgSO4, 2 mM CaCl2, 5 mM glucose, 1 mM probenecid, pH 7.4), 50 μl diluted solution per well). Plates are covered with aluminum foil and incubated at 37° C. for 1-2 hours in an environment containing 5% CO2. After the incubation, the dye is emptied from the plates, and the cells are washed once with KRH buffer, and resuspended in KRH buffer.
To measure the ability of a test compound to agonize or antagonize a calcium mobilization response in cells expressing capsaicin receptors to capsaicin or other vanilloid agonist, the EC50 of the agonist capsaicin is first determined. An additional 20 μl of KRH buffer and 1 μl DMSO is added to each well of cells, prepared as described above. 100 μl capsaicin in KRH buffer is automatically transferred by the FLIPR instrument to each well. […] Data obtained between 30 and 60 seconds after agonist application are used to generate an 8-point concentration response curve, with final capsaicin concentrations of 1 nM to 3 μM.
Test compounds are dissolved in DMSO, diluted in 20 μl KRH buffer so that the final concentration of test compounds in the assay well is between 1 μM and 5 μM, and added to cells prepared as described above. The 96 well plates containing prepared cells and test compounds are incubated in the dark, at room temperature for 0.5 to 6 hours. It is important that the incubation not continue beyond 6 hours. Just prior to determining the fluorescence response, 100 μl capsaicin in KRH buffer at twice the EC50 concentration determined as described above is automatically added by the FLIPR instrument to each well of the 96 well plate for a final sample volume of 200 μl and a final capsaicin concentration equal to the EC50. The final concentration of test compounds in the assay wells is between 1 μM and 5 μM.

The target in assay [2] is T1, human capsaicin receptor. Put plainly: Calcium mobilization assay, agonist response (Example 6). It is filed as cell-based. Particulars: positive control in the agonist assay; read-out: approximate EC90 concentration. As for the experimental part:
as §1
To measure the ability of a test compound to agonize or antagonize a calcium mobilization response in cells expressing capsaicin receptors to capsaicin or other vanilloid agonist, the EC50 of the agonist capsaicin is first determined. An additional 20 μl of KRH buffer and 1 μl DMSO is added to each well of cells, prepared as described above. 100 μl capsaicin in KRH buffer is automatically transferred by the FLIPR instrument to each well. […]

For assay [3], the target named is VR. Particulars: typically; no more than moderate affinity; read-out: Ki value (binds to VR); cited from earlier work.

A value given as a limit tells only on which side of the number the result lay.

T1 sequence (Q8NER1 whole entry): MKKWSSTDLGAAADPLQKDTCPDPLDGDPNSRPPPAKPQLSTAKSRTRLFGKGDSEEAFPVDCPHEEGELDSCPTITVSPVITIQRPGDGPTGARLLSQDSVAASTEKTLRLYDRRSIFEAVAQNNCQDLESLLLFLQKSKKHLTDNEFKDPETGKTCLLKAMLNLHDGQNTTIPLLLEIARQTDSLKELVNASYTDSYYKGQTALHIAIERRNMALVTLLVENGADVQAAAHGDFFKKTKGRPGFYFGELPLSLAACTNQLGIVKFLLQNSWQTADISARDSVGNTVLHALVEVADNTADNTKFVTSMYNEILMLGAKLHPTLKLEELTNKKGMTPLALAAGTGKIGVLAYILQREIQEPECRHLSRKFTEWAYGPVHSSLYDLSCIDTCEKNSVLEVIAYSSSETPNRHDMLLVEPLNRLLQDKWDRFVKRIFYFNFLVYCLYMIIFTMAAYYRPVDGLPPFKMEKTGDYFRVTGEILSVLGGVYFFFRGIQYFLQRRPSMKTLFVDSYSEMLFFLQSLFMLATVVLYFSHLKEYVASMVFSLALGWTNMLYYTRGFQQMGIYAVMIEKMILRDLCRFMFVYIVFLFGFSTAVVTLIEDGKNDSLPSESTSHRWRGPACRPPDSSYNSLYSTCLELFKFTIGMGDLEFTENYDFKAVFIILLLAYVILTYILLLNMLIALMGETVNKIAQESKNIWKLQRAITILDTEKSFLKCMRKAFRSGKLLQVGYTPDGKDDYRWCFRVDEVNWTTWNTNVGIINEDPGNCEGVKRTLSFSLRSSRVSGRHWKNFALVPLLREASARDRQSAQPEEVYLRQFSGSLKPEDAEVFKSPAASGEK

As for `C[C@@H]1CCCN1c1nc(-c2ccc(F)c(Cl)c2)cc(N2CCN(c3nccn3C)CC2)n1` [Compound 5, 4-(3-Chloro-4-fluoro-phenyl)-6-[4-(1-methyl-1H-imidazol-2-yl)-piperazin-1-yl]-2-((R)-2-methyl-pyrrolidin-1-yl)-pyrimidine], in assay [1], the 50% inhibitory concentration (IC50) is under 1 µM. As for `CC1CCCN1c1nc(-c2ccc(F)cc2)cc(N2CCC(c3nccn3C)CC2)n1` (stereo not shown) [Compound 3], in assay [1], the IC50 was under 1 µM. On the same count and under the same terms, as for `CC1CCCN1c1nc(-c2ccc(F)c(Cl)c2)cc(N2CCN(c3nsnc3Cl)CC2)n1` (stereo not shown) [Compound 4], the figure is under 1 µM; as for `CC1CCCN1c1nc(-c2ccc(F)cc2)cc(N2CCC(c3nnn[nH]3)CC2)n1` (stereo not shown) [Compound 1, 4-(4-Fluoro-phenyl)-2-(2-methyl-pyrrolidin-1-yl)-6-[4-(1H-tetrazol-5-yl)-piperidin-1-yl]pyrimidine], under 1 µM; as for `CC1CCCN1c1nc(-c2ccc(F)cc2)cc(N2CCN(c3nccn3C)CC2)n1` (stereo not shown) [Compound 2, 4-(4-Fluoro-phenyl)-6-[4-(1-methyl-1H-imidazol-2-yl)-piperazin-1-yl]-2-(2-methyl-pyrrolidin-1-yl)-pyrimidine], under 1 µM.

For `COc1cc(CNC(=O)CCCC/C=C/C(C)C)ccc1O` [capsaicin], the EC90 in assay [2] is about 0.1 µM. For `Cl.Cl.Cl.Cl.Cl.Cl.N.N.N.N.N.N.N.N.N.N.N.N.N.N.[O-2].[O-2].[Ru+3].[Ru+3].[Ru+4]` [ruthenium red], the Ki in assay [3] was at least 140 µM.

The record behind these values is patent US20080124384A1, “Heteroaryl Substituted Piperazinyl-Pyridine Analogues” (priority 2005, published 2008).
